Usually IC50 stands for the midpoint of a concentration-inhibition curve. Broadly, the CC50 is the concentration giving 50% cytotoxicity. A word on the EC50: it is the concentration that produces a half-maximal response.

19 compounds from ChEMBL document CHEMBL4118212, “Structure-activity relationship of uridine-based nucleoside phosphoramidate prodrugs for inhibition of dengue virus RNA-dependent RNA polymerase” (Bioorg Med Chem Lett, 2018) can be followed below.

Data set [1] concerns the target POLRMT (DNA-directed RNA polymerase, mitochondrial) (Homo sapiens, UniProt O00411). Description: Inhibition of human POLRMT using 5'-FAM labelled RNA primer/DNA template duplex assessed as single nucleotide incorporation rate at 500 uM after 5 mins by SDS-PAGE analysis relative to control. On the set-up: scale not given: the % may be the effect or the level left. As to conditions: probe 5'-FAM labelled RNA primer/DNA template duplex, read-out: Activity.

Another data set has as its target Nonstructural protein 5 (Dengue virus, UniProt V5TFZ2). Description: Inhibition of Dengue virus RdRp activity using 5'-(TCAG)20(TCCAAG)14(TCAG)20-3' as template measured after 120 mins.
A short description of data set [2]: Inhibition of recombinant human mitochondrial DNA polymerase gamma expressed in Escherichia coli BL21(DE3) cells assessed as single nucleotide incorporation rate at 100 uM relative to NTP. On the set-up: scale not given: the % may be the effect or the level left.
Data set [3] is described as follows: Cytotoxicity against human HepG2 cells after 96 hrs by CCK-8 assay. In kind it is cell-based. (Tetrazolium assays rely on reduction of a dye to a coloured formazan, in cell work by metabolically active cells.)
The subject of data set [4] is dengue virus type 2. Put plainly: Antiviral activity against Dengue virus 2 infected in human HuH7 cells by replicon assay. In kind it is functional, organism-based. As to conditions: Huh-7. In general terms: A replicon is a self-replicating genome or part of one, used to study replication in cells.
Data set [5] in a line: Cytotoxicity against human MT4 cells. In kind it is cell-based.
Data set [6] in a line: Cytotoxicity against human K562 cells. In kind it is cell-based.
Data set [7] is described as follows: Mitochondrial toxicity in human PC3 cells assessed as effect on mitochondrial protein synthesis measured after 5 days by ELISA. In kind it is cell-based, PC-3. (An ELISA detects its analyte on a solid surface through an enzyme-linked reagent.)
For data set [8], the system named is dengue virus type 2. Put plainly: Antiviral activity against Dengue virus 2 infected in human PBMC after 2 days post infection by plaque assay. In kind it is functional, organism-based. As to conditions: 48 h.
Data set [9] concerns dengue virus type 2. Put plainly: Antiviral activity against Dengue virus 2 infected in human PBMC after 24 hrs post infection by plaque assay. In kind it is functional, organism-based.
Data set [10] addresses DNA-directed RNA polymerase, mitochondrial (Homo sapiens, UniProt O00411). Description: Inhibition of human full length POLRMT using 32P-RNA primer/DNA template assessed as single nucleotide incorporation rate at 500 uM by SDS-PAGE analysis relative to CTP. On the set-up: scale not given: the % may be the effect or the level left.

POLRMT (DNA-directed RNA polymerase, mitochondrial), sequence (O00411 whole entry): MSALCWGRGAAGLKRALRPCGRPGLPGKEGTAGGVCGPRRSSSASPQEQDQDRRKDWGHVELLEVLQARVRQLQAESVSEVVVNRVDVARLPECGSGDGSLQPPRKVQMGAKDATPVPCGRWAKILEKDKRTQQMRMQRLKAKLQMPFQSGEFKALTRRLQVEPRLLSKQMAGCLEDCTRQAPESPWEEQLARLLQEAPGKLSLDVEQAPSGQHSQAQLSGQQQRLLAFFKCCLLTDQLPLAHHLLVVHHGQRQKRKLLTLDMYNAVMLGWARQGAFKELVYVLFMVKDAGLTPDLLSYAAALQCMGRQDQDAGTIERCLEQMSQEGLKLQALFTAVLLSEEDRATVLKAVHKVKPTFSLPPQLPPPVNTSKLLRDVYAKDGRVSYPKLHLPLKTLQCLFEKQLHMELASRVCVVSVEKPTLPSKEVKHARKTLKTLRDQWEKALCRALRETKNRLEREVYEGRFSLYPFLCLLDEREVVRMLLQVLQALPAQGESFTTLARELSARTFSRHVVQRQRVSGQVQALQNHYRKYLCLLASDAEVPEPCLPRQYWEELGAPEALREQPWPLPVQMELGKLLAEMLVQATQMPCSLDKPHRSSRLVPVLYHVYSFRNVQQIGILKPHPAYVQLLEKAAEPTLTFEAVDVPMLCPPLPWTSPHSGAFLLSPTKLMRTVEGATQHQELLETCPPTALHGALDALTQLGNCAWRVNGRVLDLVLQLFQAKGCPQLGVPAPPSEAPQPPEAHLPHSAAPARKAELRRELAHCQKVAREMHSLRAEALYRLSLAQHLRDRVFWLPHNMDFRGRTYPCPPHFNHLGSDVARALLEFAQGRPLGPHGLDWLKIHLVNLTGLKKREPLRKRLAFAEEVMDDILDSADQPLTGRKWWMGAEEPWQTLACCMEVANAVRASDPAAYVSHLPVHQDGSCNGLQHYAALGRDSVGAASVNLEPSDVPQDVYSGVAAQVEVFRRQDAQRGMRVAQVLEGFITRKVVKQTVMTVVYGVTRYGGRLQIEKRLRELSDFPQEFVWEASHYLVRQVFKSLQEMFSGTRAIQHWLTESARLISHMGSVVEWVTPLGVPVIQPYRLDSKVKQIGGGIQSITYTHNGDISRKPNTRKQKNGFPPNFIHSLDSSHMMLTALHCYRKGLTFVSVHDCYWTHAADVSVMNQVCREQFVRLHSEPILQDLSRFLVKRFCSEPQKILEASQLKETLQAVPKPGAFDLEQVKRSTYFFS
Nonstructural protein 5, sequence (V5TFZ2 whole entry): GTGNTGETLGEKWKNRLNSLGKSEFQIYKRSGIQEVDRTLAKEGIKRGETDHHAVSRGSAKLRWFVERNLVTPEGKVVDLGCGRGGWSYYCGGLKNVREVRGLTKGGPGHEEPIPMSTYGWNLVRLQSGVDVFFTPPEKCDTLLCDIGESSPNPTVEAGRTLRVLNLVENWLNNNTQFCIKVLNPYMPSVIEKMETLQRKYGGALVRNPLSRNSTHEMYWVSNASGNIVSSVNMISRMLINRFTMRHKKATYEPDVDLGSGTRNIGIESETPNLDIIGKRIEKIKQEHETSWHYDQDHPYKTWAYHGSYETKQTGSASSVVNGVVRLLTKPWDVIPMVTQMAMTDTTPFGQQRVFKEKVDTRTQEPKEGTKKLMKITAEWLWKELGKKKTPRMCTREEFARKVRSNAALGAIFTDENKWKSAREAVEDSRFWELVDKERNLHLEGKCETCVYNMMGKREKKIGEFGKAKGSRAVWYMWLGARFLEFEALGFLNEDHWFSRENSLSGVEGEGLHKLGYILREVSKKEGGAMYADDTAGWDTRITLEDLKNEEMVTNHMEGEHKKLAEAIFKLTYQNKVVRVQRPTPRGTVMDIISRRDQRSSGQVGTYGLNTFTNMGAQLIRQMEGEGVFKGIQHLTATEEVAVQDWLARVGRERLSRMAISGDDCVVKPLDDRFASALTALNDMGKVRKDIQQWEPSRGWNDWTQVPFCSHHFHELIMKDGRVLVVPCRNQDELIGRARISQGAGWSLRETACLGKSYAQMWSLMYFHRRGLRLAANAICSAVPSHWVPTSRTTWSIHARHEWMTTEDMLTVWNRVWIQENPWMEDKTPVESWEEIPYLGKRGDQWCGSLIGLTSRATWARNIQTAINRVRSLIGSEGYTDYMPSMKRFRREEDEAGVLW
DNA-directed RNA polymerase, mitochondrial, sequence (O00411 whole entry): as the sequence (O00411 whole entry) above

For the compound `C#C[C@]1(O)[C@H](n2ccc(=O)[nH]c2=O)O[C@](F)(COP(=O)(O)OP(=O)(O)OP(=O)(O)O)[C@H]1O`, the activity at 5 min, 500 µM in data set [1] is 3%. Moreover, at Nonstructural protein 5, the midpoint of inhibition, the IC50, lay at 0.65 µM. Also, in data set [2], the Activity is reported as 0%.
In data set [3], `CC#C[C@@]1(F)[C@H](O)[C@@H](CO[P@@](=O)(N[C@@H](C)C(=O)OC(C)C)Oc2ccccc2)O[C@H]1n1ccc(=O)[nH]c1=O` displayed a cytotoxic concentration (CC50) at 96 h above 50 µM. Moreover, the half-maximal effective concentration (EC50) in the data set with dengue virus type 2 [4] is above 100 µM.
The compound `C#C[C@]1(O)[C@H](n2ccc(=O)[nH]c2=O)O[C@](F)(CO[P@@](=O)(N[C@@H](C)C(=O)OC(C)C)Oc2ccccc2)[C@H]1O` had a half-maximal cytotoxic concentration (CC50) at 96 h in [3] above 50 µM. Further, the CC50 in data set [5] and in [6] was above 50 µM each time. Moreover, the 50% cytotoxic concentration (CC50) at 120 h in [7] is above 200 µM. In the data set on dengue virus type 2 [8], this compound came in with an EC50 of 0.57 µM.
Take `CC#C[C@@]1(O)[C@H](O)[C@@H](CO[P@@](=O)(N[C@@H](C)C(=O)OC(C)C)Oc2ccccc2)O[C@H]1n1ccc(=O)[nH]c1=O`: the CC50 at 96 h in data set [3] is above 50 µM. Moreover, in the data set with dengue virus type 2 [8], the 50% effective concentration (EC50) is 1.9 µM.
With `C#C[C@@]1(O)[C@H](O)[C@@H](COP(=O)(O)OP(=O)(O)OP(=O)(O)O)O[C@H]1n1ccc(=O)[nH]c1=O`, the activity at 5 min, 500 µM in data set [1] was 16.8%. The same compound came in with an IC50 against Nonstructural protein 5 of 1.6 µM.
In the same order, the values of `CC#C[C@]1(O)[C@H](n2ccc(=O)[nH]c2=O)O[C@](F)(COP(=O)(O)OP(=O)(O)OP(=O)(O)O)[C@H]1O` are 1.7% and 2.8 µM.
As for `CC#C[C@@]1(O)[C@H](O)[C@@H](COP(=O)(O)OP(=O)(O)OP(=O)(O)O)O[C@H]1n1ccc(=O)[nH]c1=O`, the activity at 5 min, 500 µM in data set [1] was 6.7%. Also, it took 2 µM to reach half-maximal inhibition on Nonstructural protein 5 (IC50).
In the same order, the values of `C#C[C@@]1(F)[C@H](O)[C@@H](COP(=O)(O)OP(=O)(O)OP(=O)(O)O)O[C@H]1n1ccc(=O)[nH]c1=O` are 2% and 15.9 µM.
Consider `C#C[C@@]1(F)[C@H](O)[C@@H](CO[P@@](=O)(N[C@@H](C)C(=O)OC(C)C)Oc2ccccc2)O[C@H]1n1ccc(=O)[nH]c1=O`, for which the CC50 at 96 h in [3] was above 50 µM. In the data set on dengue virus type 2 [8], this compound yielded an EC50 above 25 µM.
In the same order, the values of `CC#C[C@]1(O)[C@H](n2ccc(=O)[nH]c2=O)O[C@](F)(CO[P@@](=O)(N[C@@H](C)C(=O)OC(C)C)Oc2ccccc2)[C@H]1O` are above 50 µM and 9 µM.
`C#C[C@@]1(O)[C@H](O)[C@@H](CO[P@@](=O)(N[C@@H](C)C(=O)OC(C)C)Oc2ccccc2)O[C@H]1n1ccc(=O)[nH]c1=O` had a half-maximal cytotoxic concentration (CC50) at 96 h in [3] above 50 µM. The concentration for a half-maximal effect (EC50) in the data set on dengue virus type 2 [8] amounted to 0.45 µM.
In the case of `CC#C[C@@]1(F)[C@H](O)[C@@H](COP(=O)(O)OP(=O)(O)OP(=O)(O)O)O[C@H]1n1ccc(=O)[nH]c1=O`, the activity at 5 min, 500 µM in [1] is 2.2%. In addition, at Nonstructural protein 5, the IC50 is above 20 µM.
`C[C@@]1(O)[C@H](O)[C@@H](COP(=O)(O)OP(=O)(O)OP(=O)(O)O)O[C@H]1n1ccc(=O)[nH]c1=O`: the activity at 5 min, 500 µM in [1] was 29.4%. In addition, it took 5 µM to reach half-maximal inhibition against Nonstructural protein 5 (IC50).
In the case of `CC(C)OC(=O)[C@H](C)NP(=O)(OC[C@H]1O[C@@H](n2ccc(=O)[nH]c2=O)[C@](C)(O)[C@@H]1O)Oc1ccccc1` (mixture of isomers), the CC50 at 96 h in data set [3] is above 50 µM. Further, in the data set on dengue virus type 2 [8], the EC50 was determined as 0.19 µM.
Regarding `[N-]=[N+]=N[C@]1(CO)O[C@@H](n2ccc(N)nc2=O)[C@H](O)[C@@H]1O` [4'-AZIDOCYTIDINE], the EC50 with dengue virus type 2 [9] worked out at 0.25 µM. Besides, the Activity in data set [10] was determined as 91%.
In the case of `C[C@]1(O)[C@H](n2ccc(=O)[nH]c2=O)O[C@](F)(COP(=O)(O)OP(=O)(O)OP(=O)(O)O)[C@H]1O` [ADAFOSBUVIR 5'-TRIPHOSPHATE], the activity at 5 min, 500 µM in data set [1] is 5.7%. This compound had a concentration for half-maximal inhibition (IC50) at Nonstructural protein 5 of 6.6 µM.
The compound `CC(C)OC(=O)[C@H](C)N[P@](=O)(OC[C@@]1(F)O[C@@H](n2ccc(=O)[nH]c2=O)[C@](C)(O)[C@@H]1O)Oc1ccccc1` [ADAFOSBUVIR] yielded a 50% cytotoxic concentration (CC50) at 96 h in data set [3] above 50 µM. In the data set on dengue virus type 2 [8], this compound registered an EC50 of 1.1 µM.
Regarding `C[C@@]1(F)[C@H](O)[C@@H](COP(=O)(O)OP(=O)(O)OP(=O)(O)O)O[C@H]1n1ccc(=O)[nH]c1=O` [GS-461203], the activity at 5 min, 500 µM in data set [1] amounted to 1.8%. At Nonstructural protein 5, this compound displayed an IC50 of 18 µM.
Regarding `CC(C)OC(=O)[C@H](C)N[P@](=O)(OC[C@H]1O[C@@H](n2ccc(=O)[nH]c2=O)[C@](C)(F)[C@@H]1O)Oc1ccccc1` [SOFOSBUVIR], the CC50 at 96 h in data set [3] is above 50 µM. In the data set with dengue virus type 2 [8], this compound came in with an EC50 of 1.2 µM.
